In patent publication US20230203058A1, “MACROCYCLIC DIAMINE DERIVATIVES AS ENT INHIBITORS FOR THE TREATMENT OF CANCERS, AND COMBINATION THEREOF WITH ADENOSINE RECEPTOR ANTAGONISTS” (ITEOS BELGIUM SA, priority 2020, published 2023):
Like-named read-outs stand apart in the source and are kept apart here.

Tested on: stimulated primary human T cells
Assay: T cell proliferation assay (rescue of proliferation in presence of ATP, CFSE dilution)
Assay type: cell-based
Conditions: 100 uM ATP

## COc1cc(C(=O)O[C@H]2CCCOc3cc(cc(OC)c3OC)C(=O)OCCCN3CCCN(CC2)CC3)cc(OC)c1OC [Compound 2, (12S)-74,75-dimethoxy-6-oxo-5,8-dioxa-1(1,4)-diazepana-7(1,3)-benzenacyclotetradecaphane-12-yl 3,4,5-trimethoxybenzoate]
Condition A: X-VIVO15, read-out: T Cell proliferation (Condition A) IC50
  IC50: 20 to 500 nM
Condition B: X-VIVO15, 2% HSA and 0,1% AAG, read-out: (2) T Cell proliferation (Condition B) IC50
  IC50: 20 to 500 nM
